Measurements reported in patent publication US20220267352A1, “RAPAMYCIN ANALOGS AND USES THEREOF” (Anakuria Therapeutics, Inc., priority 2021, published 2022).

Legend:
Type in all cases: cell-based
[1] = test system: p-p70 S6 Kinase (Thr389) in MCF-7 cells; assay: AlphaLISA Ultra pS6K1 assay; conditions: Homo sapiens, 1.5 h; MCF7 cells, 90 min
Procedure: Example 55: AlphaLISA Ultra pS6K1 Assay
(§1) Assay Protocol: • 1. Seed MCF-7 cells in Corning 3701 plate and incubate for 20˜24 hour. 12,000˜16,000 cells will be seeded in 36 μL medium per well. • 2. Change the culture medium with fresh medium and incubate for another 2 hours. • 3. Add 12 μL (4×) compounds into the cell plate by HAMILTON. Final DMSO concentration is 0.5%. Incubate for 90 minutes. • 4. Aspirate 38 μL by HAMILTON, 10 μL rest per well. • 5. Add 10 μL 2× lysis buffer using HAMILTON; total volume in wells is 20 μL. Allow cells to shake for 30 min. Cover plate by plastic foil and store plate at −80° C. up to analysis. • 6. Thaw cell lysate at RT and transfer 10 μL lysate to assay plate (Optiplate-384). • 7. Add 5 μL acceptor beads into assay plate and incubation for 2 hours • 8. Add 5 μL donor beads and incubation for 2 hours • 9. Count the plate by EnSpire Multimode Plate Reader

[2] = test system: p-Akt 1/2/3 (Ser473) in MCF-7 cells; assay: AlphaLISA Ultra pAKT assay; conditions: Homo sapiens, 1.5 h; MCF7 cells, 90 min
Procedure: Example 56: AlphaLISA Ultra pAKT Assay
as §1, with “1.” for “1. Seed”, “16,000˜20,000” for “12,000˜16,000”, “90 minutes.” for “2 hours.”, “Incubate for 90 minutes. • 4.” left out

mTORC1 over mTORC2 = mTORC1 over mTORC2 selectivity by comparing pS6K1 and pAKT IC50; conditions: by comparing pS6K1 and pAKT IC50, 90 min
Procedure: as §1, with “Reader […]” for “Reader”
Compounds that are not selective by comparing pS6K1 and pAKT IC50 by kinase assays are indicated by “NO” in the “mTORC1 selective @ 90 min” column of Table 4. […] Compounds that are not selective at the 24 hrs mark are indicated by “NO” in the “mTORC1 selective @ 24 hrs” column of Table 4. “N/A” stands for “not assayed” and “N/C” stands for “not calculated”.

Row | Structure (SMILES) | IC50 [1] [nM] | IC50 [2] [nM] | mTORC1 selective @ 90 min (mTORC1 over mTORC2)
1 | COCCOCCOC1C[C@@H]2CC[C@@H](C)[C@@](O)(O2)C(=O)C(=O)N2CCCC[C@H]2C(=O)O[C@H]([C@H](C)C[C@@H]2CCC(OC3COC3)[C@H](OC)C2)CC(=O)[C@H](C)/C=C(\C)[C@@H](O)[C@@H](OC)C(=O)[C@H](C)C[C@H](C)/C=C/C=C/C=C/1C (stereo partly drawn) [I-7, (24E,26E,28E,29E,35R,36S,37R,38R,40S,42S,45S,47R,48R,57R)-47,57-dihydroxy-48-methoxy-44-[2-(2-methoxyethoxy)ethoxy]-45-[(1R)-2-[(1S,3R)-3-methoxy-4-(oxetan-3-yloxy)cyclohexyl]-1-methyl-ethyl]-35,36,37,38,49,50-hexamethyl-67,68-dioxa-58-azatricyclohexatriaconta-24,26,28(49),29(50)-tetraene-51,52,53,54,55-pentone] | 1 to 10 | ≥ 1000 | Yes
2 | CO[C@@H]1C[C@H](C[C@@H](C)[C@@H]2CC(=O)[C@H](C)/C=C(\C)[C@@H](O)[C@@H](OC)C(=O)[C@H](C)C[C@H](C)/C=C/C=C/C=C(\C)[C@@H](OCCOC3COC3)C[C@@H]3CC[C@@H](C)[C@@](O)(O3)C(=O)C(=O)N3CCCC[C@H]3C(=O)O2)CC[C@H]1OCCCN1C[C@@H](C)O[C@@H](C)C1 [I-101, (27E,29E,31E,32E,39R,40S,41R,44R,46S,48S,50S,51S,53R,54R,63R)-51-[(1R)-2-[(1S,3R,4R)-4-[3-[(2S,6R)-2,6-dimethylmorpholin-4-yl]propoxy]-3-methoxy-cyclohexyl]-1-methyl-ethyl]-53,63-dihydroxy-54-methoxy-39,40,41,44,55,56-hexamethyl-50-[2-(oxetan-3-yloxy)ethoxy]-75,76-dioxa-64-azatricyclohexatriaconta-27,29,31(55),32(56)-tetraene-57,58,59,60,61-pentone] | 10 to 100 | ≥ 1000 | Yes
3 | CO[C@@H]1C[C@H](C[C@@H](C)[C@@H]2CC(=O)[C@H](C)/C=C(\C)[C@@H](O)[C@@H](OC)C(=O)[C@H](C)C[C@H](C)/C=C/C=C/C=C(\C)[C@H](OCC3COCCO3)C[C@@H]3CC[C@@H](C)[C@@](O)(O3)C(=O)C(=O)N3CCCC[C@H]3C(=O)O2)CC[C@H]1OC(F)F (stereo partly drawn) [I-10, (24E,26E,28E,29E,32R,33S,34R,35R,37S,39S,41R,42S,44R,45R,55R)-42-[(1R)-2-[(1S,3R,4R)-4-(difluoromethoxy)-3-methoxy-cyclohexyl]-1-methyl-ethyl]-41-(1,4-dioxan-2-ylmethoxy)-44,55-dihydroxy-45-methoxy-32,33,34,35,46,47-hexamethyl-66,67-dioxa-56-azatricyclohexatriaconta-24,26,28(46),29(47)-tetraene-48,49,50,51,52-pentone] | 10 to 100 | ≥ 1000 | Yes
4 | CO[C@@H]1C[C@H](C[C@@H](C)[C@@H]2CC(=O)[C@H](C)/C=C(\C)[C@@H](O)[C@@H](OC)C(=O)[C@H](C)C[C@H](C)/C=C/C=C/C=C(\C)C(OCC3COCCO3)C[C@@H]3CC[C@@H](C)[C@@](O)(O3)C(=O)C(=O)N3CCCC[C@H]3C(=O)O2)CC[C@H]1OC(=O)N(C)CCN1CCOCC1 (stereo partly drawn) [I-99, [(40S,42R,44R)-4-[(2R)-2-[(27E,29E,31E,32E,36R,37S,38R,39R,41S,43S,45S,46S,47R,48R,58R)-47,58-dihydroxy-45,48-dimethoxy-36,37,38,39,49,50-hexamethyl-51,52,53,54,55-pentaoxo-71,72-dioxa-60-azatricyclohexatriaconta-27,29,31(49),32(50)-tetraen-46-yl]propyl]-44-methoxy-42-cyclohexyl]N-methyl-N-(2-morpholinoethyl)carbamate] | 1 to 10 | ≥ 1000 | Yes
5 | CO[C@@H]1C[C@H](C[C@@H](C)[C@@H]2CC(=O)[C@H](C)/C=C(\C)[C@@H](O)[C@@H](OC)C(=O)[C@H](C)C[C@H](C)/C=C/C=C/C=C(\C)[C@@H](OCCOC3COC3)C[C@@H]3CC[C@@H](C)[C@@](O)(O3)C(=O)C(=O)N3CCCC[C@H]3C(=O)O2)CC[C@H]1OC(F)F [I-105, (23E,25E,27E,28E,32R,33S,34R,35R,37S,39S,41S,42S,44R,45R,55R)-42-[(1R)-2-[(1S,3R,4R)-4-(difluoromethoxy)-3-methoxy-cyclohexyl]-1-methyl-ethyl]-44,55-dihydroxy-45-methoxy-32,33,34,35,46,47-hexamethyl-41-[2-(oxetan-3-yloxy)ethoxy]-65,66-dioxa-56-azatricyclohexatriaconta-23,25,27(46),28(47)-tetraene-48,49,50,51,52-pentone] | 1 to 10 | ≥ 1000 | Yes
6 | CO[C@@H]1/C(C)=C/[C@@H](C)C(=O)C[C@@H]([C@H](C)C[C@@H]2CC[C@@H](OCCO)[C@H](OC)C2)OC(=O)[C@@H]2CCCCN2C(=O)C(=O)[C@]2(O)O[C@@H](CC[C@H]2C)CC(OCCOCCN)/C(C)=C/C=C/C=C/[C@@H](C)C[C@@H](C)C(=O)[C@@H]1OC (stereo partly drawn) [I-23, (22E,24E,26E,27E,35R,36S,37R,38R,40S,42S,45S,46R,47R,56R)-44-[2-(2-aminoethoxy)ethoxy]-56-hydroxy-45-[(1R)-2-[(1S,3R,4R)-4-(2-hydroxyethoxy)-3-methoxy-cyclohexyl]-1-methyl-ethyl]-46,47-dimethoxy-35,36,37,38,48,49-hexamethyl-66,67-dioxa-58-azatricyclohexatriaconta-22,24,26(48),27(49)-tetraene-50,51,52,53,54-pentone] | 100 to 1000 | ≥ 1000 | Yes
7 | COCCOCCO[C@@H]1C[C@@H]2CC[C@@H](C)[C@@](O)(O2)C(=O)C(=O)N2CCCC[C@H]2C(=O)O[C@H]([C@H](C)C[C@@H]2CC[C@@H](OCCO)[C@H](OC)C2)CC(=O)[C@H](C)/C=C(\C)[C@@H](OC)[C@@H](OC)C(=O)[C@H](C)C[C@H](C)/C=C/C=C/C=C/1C [I-36, (23E,25E,27E,28E,36R,37S,38R,39R,41S,43S,45R,46S,47R,48R,57R)-57-hydroxy-46-[(1R)-2-[(1S,3R,4R)-4-(2-hydroxyethoxy)-3-methoxy-cyclohexyl]-1-methyl-ethyl]-47,48-dimethoxy-45-[2-(2-methoxyethoxy)ethoxy]-36,37,38,39,49,50-hexamethyl-66,67-dioxa-58-azatricyclohexatriaconta-23,25,27(49),28(50)-tetraene-51,52,53,54,55-pentone] | 1 to 10 | ≥ 1000 | Yes
8 | CO[C@@H]1C[C@H](C[C@@H](C)[C@@H]2CC(=O)[C@H](C)/C=C(\C)[C@@H](O)[C@@H](OC)C(=O)[C@H](C)C[C@H](C)/C=C/C=C/C=C(\C)[C@@H](OCCOC3COC3)C[C@@H]3CC[C@@H](C)[C@@](O)(O3)C(=O)C(=O)N3CCCC[C@H]3C(=O)O2)CC[C@H]1OP(C)(C)=O [I-78, (1R,9S,12S,15R,16E,18R,19R,21R,23S,24E,26E,28E,30S,32S,35R)-12-[(1R)-2-[(1S,3R,4R)-4-dimethylphosphoryloxy-3-methoxy-cyclohexyl]-1-methyl-ethyl]-1,18-dihydroxy-19-methoxy-15,17,21,23,29,35-hexamethyl-30-[2-(oxetan-3-yloxy)ethoxy]-11,36-dioxa-4-azatricyclo[30.3.1.0^4,9]hexatriaconta-16,24,26,28-tetraene-2,3,10,14,20-pentone] | < 1 | ≥ 1000 | Yes
